≈ marks a conversion by molar mass, not a printed value.
Test system: Mycobacterium tuberculosis
Assay: Antimycobacterial activity against Mycobacterium tuberculosis H37Rv assessed as growth inhibition after 7 days by resazurin method
Format: functional
Details: 168 h

Row | Structure (SMILES) | MIC [mg/L]
1 | CC(C)[C@@H]1OC(=O)[C@H](C)[C@H](O)[C@H](Cc2cccnc2)NC(=O)[C@@H](NC(=O)c2ncccc2O)[C@@H](C)OC1=O | 12.5 (≈ 23.6 µM)
2 | CC/C(C)=C1\OC(=O)[C@H](C)[C@H](O)[C@H](Cc2cccnc2)NC(=O)[C@@H](NC(=O)c2ncccc2O)[C@@H](C)OC1=O [PYRIDOMYCIN] | 0.39 (≈ 0.721 µM)
3 | CC(C)[C@H]1OC(=O)[C@H](C)[C@H](O)[C@H](Cc2cccnc2)NC(=O)[C@@H](NC(=O)c2ncccc2O)[C@@H](C)OC1=O | 1.56 (≈ 2.95 µM)

Reference: ChEMBL document CHEMBL2321872, “Synthesis and antimycobacterial activity of 2,1'-dihydropyridomycins” (ACS Med Chem Lett, 2013)
